Measurements published in ChEMBL document CHEMBL1201862, “PubChem BioAssay data set” (2004).
The source made the active and inactive calls.

Legend:
[1] = OVCAR8 cell viability loss – plate reader, dry powder samples, PAX8 project, dose response (AID 743197); format: functional, cell-based; settings: OVCAR-8
[2] = biological target: T1, Adenosylmethionine-8-amino-7-oxononanoate aminotransferase (Mycobacterium tuberculosis, UniProt P9WQ81); assay: Mycobacterium tuberculosis BioA enzyme inhibitor Measured in Biochemical System Using Plate Reader - 2163-02_Inhibitor_Dose_CherryPick_Activity.; format: functional, Mycobacterium tuberculosis UT205
T1 sequence (P9WQ81 whole entry): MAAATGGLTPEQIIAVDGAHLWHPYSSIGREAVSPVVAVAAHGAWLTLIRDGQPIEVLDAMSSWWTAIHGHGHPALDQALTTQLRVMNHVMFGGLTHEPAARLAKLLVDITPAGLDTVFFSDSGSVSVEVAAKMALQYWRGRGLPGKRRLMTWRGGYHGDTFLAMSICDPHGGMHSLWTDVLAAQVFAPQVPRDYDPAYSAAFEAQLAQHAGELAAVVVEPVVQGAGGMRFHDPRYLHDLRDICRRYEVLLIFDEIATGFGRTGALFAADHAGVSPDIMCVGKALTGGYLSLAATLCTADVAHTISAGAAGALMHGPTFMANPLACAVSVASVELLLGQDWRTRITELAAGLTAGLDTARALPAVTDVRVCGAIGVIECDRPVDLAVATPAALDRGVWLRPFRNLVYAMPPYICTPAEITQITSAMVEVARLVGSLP

fMet-Leu-Phe receptor = fMet-Leu-Phe receptor (Homo sapiens, UniProt P21462); assay: formyl peptide receptor binders – dose response (AID 519); format: functional
[3] = viability loss in HEK293 cells – cell-based, plate reader, cherry-picked samples, cytotoxicity control, dose response (AID 743446); format: functional
[4] = blockers of bursicon-stimulated LGR2 cAMP reporter – cell-based, HEK293, CRE-luciferase reporter, cherry pick, set 2, dose response (AID 743343); format: functional;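 note: transfected cells were stimulated with diluted bursicon conditioned medium after compound addition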
[5] = blockade of melanocortin 4 receptor signaling – cell-based, plate reader, cherry pick, counter-screen for LGR2 antagonist project, dose response (AID 743444); format: functional;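 note: transfected HEK 293 cells stimulated with alpha-MSH peptide; potency of inhibitors of the alpha-MSH evoked signal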
[6] = biological target: T2, Trace amine-associated receptor 1 (Homo sapiens, UniProt Q96RJ0); assay: Fluorescence-based cell-based high throughput dose response assay to identify antagonists of the human trace amine associated receptor 1 (TAAR1).; format: functional
T2 sequence (Q96RJ0 whole entry): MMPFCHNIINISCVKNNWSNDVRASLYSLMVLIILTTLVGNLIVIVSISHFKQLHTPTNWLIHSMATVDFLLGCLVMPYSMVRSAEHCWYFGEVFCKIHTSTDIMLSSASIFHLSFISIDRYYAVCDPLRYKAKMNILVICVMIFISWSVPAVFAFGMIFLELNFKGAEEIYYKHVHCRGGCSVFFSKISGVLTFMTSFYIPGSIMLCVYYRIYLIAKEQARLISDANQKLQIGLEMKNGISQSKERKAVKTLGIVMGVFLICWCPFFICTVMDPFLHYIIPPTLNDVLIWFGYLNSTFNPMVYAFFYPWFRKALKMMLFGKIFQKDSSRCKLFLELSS

[7] = Counterscreen for […] of the human trace amine associated receptor 1 (TAAR1): Fluorescence-based cell-based high throughput dose response assay to identify nonselective Ga16 agonists.; format: functional
[8] = biological target: T2, Trace amine-associated receptor 1; assay: Counterscreen for antagonists of the human trace amine associated receptor 1 (hTAAR1): Fluorescence-based cell-based high throughput dose response assay to identify TAAR1 Agonists.; format: functional
[9] = Counterscreen for antagonists of the human trace amine associated receptor 1 (hTAAR1): Fluorescence-based cell-based high throughput dose response assay to identify nonselective Ga16 antagonists.; format: functional
[10] = biological target: Ras and Rab interactor 1/Tyrosine-protein kinase ABL1 (Homo sapiens, UniProt P00519+Q13671); format: functional;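 note: biochemical TR-FRET dose-response test measuring inhibition of binding between Rin1 and Abl proteins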
cells [11] = format: functional, cell-based
[12] = biological target: T2, Trace amine-associated receptor 1; assay: Counterscreen for agonists of the human trace amine associated receptor 1 (hTAAR1): Fluorescence-based cell-based high throughput dose response assay to identify hTAAR1 agonist that also desensitize TAAR1 receptor response.; format: functional
[13] = biological target: T2, Trace amine-associated receptor 1; assay: Fluorescence-based cell-based high throughput dose response assay to identify agonists of the human trace amine associated receptor 1 (TAAR1).; format: functional
cells [14] = format: functional, cell-based; remark: listed apart in the source
Paired box protein Pax-8 = Paired box protein Pax-8 (Homo sapiens, UniProt Q06710); assay: PAX8 transcriptional activity inhibition in RMG-I – RMG-I cells, luciferase, cherry-pick, dose response (AID 687027); format: functional, cell-based;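 note: luciferase reporter driven by Pax8 target thyroperoxidase promoter measured by SteadyGlo luminescence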
Sequence of Paired box protein Pax-8 (Q06710 whole entry): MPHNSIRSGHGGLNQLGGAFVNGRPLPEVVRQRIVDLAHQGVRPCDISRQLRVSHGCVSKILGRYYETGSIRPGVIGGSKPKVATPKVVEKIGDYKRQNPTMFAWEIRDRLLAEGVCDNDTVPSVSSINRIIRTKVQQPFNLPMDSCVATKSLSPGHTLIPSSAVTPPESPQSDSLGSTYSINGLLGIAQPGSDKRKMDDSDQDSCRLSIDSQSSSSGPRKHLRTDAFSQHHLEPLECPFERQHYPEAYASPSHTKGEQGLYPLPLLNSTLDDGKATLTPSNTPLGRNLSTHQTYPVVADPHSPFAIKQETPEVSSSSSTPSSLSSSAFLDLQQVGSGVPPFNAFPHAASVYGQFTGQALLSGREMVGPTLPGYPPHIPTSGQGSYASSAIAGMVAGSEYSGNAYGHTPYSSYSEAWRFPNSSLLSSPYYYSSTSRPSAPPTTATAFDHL

Sequence of Ras and Rab interactor 1/Tyrosine-protein kinase ABL1 (P00519 whole entry): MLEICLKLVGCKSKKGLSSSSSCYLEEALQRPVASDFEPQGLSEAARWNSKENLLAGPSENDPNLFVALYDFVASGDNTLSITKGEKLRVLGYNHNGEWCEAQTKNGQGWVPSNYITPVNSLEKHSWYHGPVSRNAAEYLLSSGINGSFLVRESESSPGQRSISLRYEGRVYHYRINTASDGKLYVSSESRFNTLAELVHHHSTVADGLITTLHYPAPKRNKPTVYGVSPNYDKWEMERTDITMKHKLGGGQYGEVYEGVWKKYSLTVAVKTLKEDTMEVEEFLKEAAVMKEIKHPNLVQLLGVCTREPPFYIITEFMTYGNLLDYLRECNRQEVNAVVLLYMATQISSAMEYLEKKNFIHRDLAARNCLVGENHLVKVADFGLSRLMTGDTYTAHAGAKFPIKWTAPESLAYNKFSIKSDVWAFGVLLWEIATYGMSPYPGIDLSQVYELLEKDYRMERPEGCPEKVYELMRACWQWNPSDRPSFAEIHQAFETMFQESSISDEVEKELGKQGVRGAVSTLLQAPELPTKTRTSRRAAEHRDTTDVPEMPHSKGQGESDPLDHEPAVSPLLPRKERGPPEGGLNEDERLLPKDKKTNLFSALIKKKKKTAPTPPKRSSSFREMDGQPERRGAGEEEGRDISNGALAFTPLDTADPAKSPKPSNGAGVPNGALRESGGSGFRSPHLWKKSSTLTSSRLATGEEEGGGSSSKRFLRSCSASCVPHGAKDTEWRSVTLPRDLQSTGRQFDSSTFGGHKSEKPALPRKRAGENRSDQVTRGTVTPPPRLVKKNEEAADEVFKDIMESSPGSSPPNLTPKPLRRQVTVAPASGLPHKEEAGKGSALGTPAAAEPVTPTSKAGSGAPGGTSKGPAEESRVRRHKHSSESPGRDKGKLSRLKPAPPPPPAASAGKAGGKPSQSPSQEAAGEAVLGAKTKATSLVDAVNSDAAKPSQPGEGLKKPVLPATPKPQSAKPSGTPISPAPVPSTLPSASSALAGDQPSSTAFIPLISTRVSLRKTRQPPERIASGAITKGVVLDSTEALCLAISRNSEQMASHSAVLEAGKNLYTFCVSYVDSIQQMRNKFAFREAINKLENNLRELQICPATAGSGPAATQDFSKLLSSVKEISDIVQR
Sequence of Ras and Rab interactor 1/Tyrosine-protein kinase ABL1 (Q13671 whole entry): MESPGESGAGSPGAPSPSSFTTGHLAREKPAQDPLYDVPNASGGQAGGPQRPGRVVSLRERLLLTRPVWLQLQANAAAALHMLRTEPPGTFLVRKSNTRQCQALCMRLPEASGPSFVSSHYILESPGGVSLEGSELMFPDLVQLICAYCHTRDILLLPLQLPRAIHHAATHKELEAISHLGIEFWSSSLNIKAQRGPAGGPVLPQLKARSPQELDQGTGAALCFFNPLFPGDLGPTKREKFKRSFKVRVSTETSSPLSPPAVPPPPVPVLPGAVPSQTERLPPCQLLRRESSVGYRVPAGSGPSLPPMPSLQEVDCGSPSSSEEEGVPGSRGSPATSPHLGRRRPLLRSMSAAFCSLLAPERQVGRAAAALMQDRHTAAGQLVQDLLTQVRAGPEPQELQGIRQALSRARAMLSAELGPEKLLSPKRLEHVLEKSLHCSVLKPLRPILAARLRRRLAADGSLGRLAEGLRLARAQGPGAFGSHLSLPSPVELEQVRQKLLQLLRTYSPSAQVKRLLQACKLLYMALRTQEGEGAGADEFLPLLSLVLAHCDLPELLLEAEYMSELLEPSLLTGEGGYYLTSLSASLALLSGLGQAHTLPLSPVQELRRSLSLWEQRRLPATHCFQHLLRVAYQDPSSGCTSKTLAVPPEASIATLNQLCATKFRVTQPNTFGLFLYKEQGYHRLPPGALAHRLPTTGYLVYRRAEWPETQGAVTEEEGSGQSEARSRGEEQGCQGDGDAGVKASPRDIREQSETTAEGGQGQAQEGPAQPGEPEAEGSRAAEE
Sequence of fMet-Leu-Phe receptor (P21462 whole entry): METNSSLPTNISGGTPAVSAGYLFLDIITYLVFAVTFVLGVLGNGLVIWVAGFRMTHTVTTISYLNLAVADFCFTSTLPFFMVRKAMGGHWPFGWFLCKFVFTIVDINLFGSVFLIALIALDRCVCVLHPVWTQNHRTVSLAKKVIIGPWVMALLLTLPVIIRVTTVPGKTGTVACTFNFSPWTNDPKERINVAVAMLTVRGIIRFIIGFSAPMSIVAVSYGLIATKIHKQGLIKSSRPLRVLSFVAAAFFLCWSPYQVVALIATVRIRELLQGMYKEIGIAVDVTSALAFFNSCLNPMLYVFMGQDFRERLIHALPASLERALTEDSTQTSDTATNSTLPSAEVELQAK

Compound: COc1ccc(-c2ccc3c(c2)[C@H]2[C@H](CCN2C(=O)Cc2cccnc2)[C@H](CO)N3C)cc1
- AC50 [1]: > 70 µM (inactive)
- AC50 [2]: 1.57 µM (active)

Compound: Cc1cccc(C2CC(c3ccc(Cl)cc3)Nc3nc(N)nn32)c1 (configuration not stated)
- Ki (fMet-Leu-Phe receptor): > 66.7 µM (inactive)

Compound: FC(F)(F)c1cccc(CC2CN(Cc3ccccc3)Cc3ccccc3N2c2cc(Cl)cc(Cl)c2)c1 (configuration not stated)
- AC50 [3]: > 52 µM (inactive)
- AC50 [4]: 22.2 µM (active)
- AC50 [5]: 12.5 µM (active)

Compound: COc1ccc(-n2nnnc2C(C2CC2)N2CCC(n3c(O)nc4ccccc43)CC2)cc1 (configuration not stated)
- IC50 [6]: > 9.96 µM (active)
- EC50 [7]: > 29.9 µM (inactive)
- EC50 [8]: 22.4 µM (inactive)
- IC50 [9]: > 29.9 µM (inactive)
- IC50 [10]: 19.8 µM (inactive)

Compound: Cc1cc2nc3n(c2cc1C)CC1CC(C(=O)NCCc2cccs2)N(C)C31 (configuration not stated)
- EC50 (cells [11]): > 29.9 µM (inactive)
- IC50 [12]: 8.5 µM (active)
- EC50 [13]: 2 µM (active)
- IC50 (cells [14]): > 29.9 µM (inactive)

Compound: C[C@@H]1CCCCO[C@H](CN(C)C(=O)Nc2ccc(C(F)(F)F)cc2)[C@@H](C)CN([C@@H](C)CO)C(=O)c2cc(NS(=O)(=O)c3ccc(F)cc3)ccc2O1
- AC50 [1]: > 70 µM (inactive)
- AC50 (Paired box protein Pax-8): 4.88 µM (active)
